{"source": "patent US11053201B2", "about": "“Crystalline forms” (SYNGENTA PARTICIPATIONS AG, priority 2018, dated 2021)", "key": {"[1]": {"assay": "temperature cycling test of FS200 flowable concentrate for seed treatment formulations, analysed under a microscope (40×) for crystal growth", "assay_type": "physicochemical", "details": "for crystal growth: FS formulation", "description": "As mentioned previously, it is crucial for the successful application of an agrochemical and/or pharmaceutical formulation that the crystalline form is stable in the particular formulation environment. Flowable concentrates for seed treatment (FS) formulations were prepared for both Form A and Form B. The only difference between the two formulations was the polymorphic form used, all of the other components were identical. The formulations were analyzed under a microscope (40×) for possible crystal growth which can have detrimental consequences such as thickening and potentially solidification of the formulation which can in turn lead to blockages in application equipment, e.g. in seed coating equipment or in spray nozzles in agricultural application machinery. Pictures were taken of the formulations at (i) start (FIGS. 13a and 14a), (ii) immediately after the temperature cycling test (FIGS. 13b and 14b) and (iii) two days at room temperature (RT) after the temperature cycling test (FIGS. 13c and 14c). The pictures are shown for the formulation comprising Form A in FIGS. 13a, 13b and 13c and the pictures for the formulations comprising Form B in FIGS. 14a, 14b and 14c. […] The recipe used is given in Table 8: The above formulations were tested for stability in a temperature cycling test as shown in FIG. 12. The formulations were then analyzed under the microscope (40×) to check for possible stability issues, in particular crystal growth and pictures were taken."}, "[2]": {"assay": "chemical stability of the polymorphic forms in the formulations tested", "details": "in the FS formulations tested"}, "[3]": {"details": "at start, before the temperature cycling test, microscope 40× (FIGS. 13a, 14a)"}, "[4]": {"details": "immediately after the temperature cycling test, microscope 40× (FIGS. 13b, 14b)"}, "[5]": {"details": "two days at room temperature after the temperature cycling test, microscope 40× (FIGS. 13c, 14c)"}}}
{"smiles": "O=C(N[C@H]1CC[C@H]1c1ccc(Cl)cc1Cl)c1cccnc1C(F)(F)F", "note": "[Form A, N-[(1S,2S)-2-(2,4-dichlorophenyl)cyclobutyl]-2-(trifluoromethyl) pyridine-3-carboxamide]", "values": [{"measurement": "crystal growth", "setting": "[1]; [3]", "result": "did not exhibit any crystal growth"}, {"measurement": "crystal growth", "setting": "[1]; [4]", "result": "clear crystal growth"}, {"measurement": "crystal growth", "setting": "[1]; [5]", "result": "even further crystal growth"}]}
{"smiles": "O=C(N[C@H]1CC[C@H]1c1ccc(Cl)cc1Cl)c1cccnc1C(F)(F)F", "note": "[Form B, (1S,2S) N-[2-(2,4-dichlorophenyl)cyclobutyl]-2-(trifluoromethyl)pyridine-3-carboxamide]", "values": [{"measurement": "crystal growth", "setting": "[1]; [3]", "result": "did not exhibit any crystal growth"}, {"measurement": "crystal growth", "setting": "[1]; [4]", "result": "no such crystal growth"}, {"measurement": "crystal growth", "setting": "[1]; [5]", "result": "no such crystal growth"}, {"measurement": "resistance to crystal growth", "setting": "[1]; when exposed to typical storage conditions", "result": "surprisingly resistant to crystal growth"}, {"measurement": "chemical stability (compound degradation)", "setting": "[2]", "result": "no compound degradation was observed"}]}
